Columns and labels:
ACTH secretion = experiment: Actions of insulin on ACTH secretion; format: in vivo, Sprague-Dawley rats; details: 30 minutes, fasted male rats
Protocol: To determine whether a drug can modify stress responses, the stress response itself must be characterized. To accomplish this goal, adult male Sprague-Dawley rats [Charles River, Kingston, N.Y.] were treated with increasing doses of insulin [Humulin, Eli Lilly Co.] ranging from 0.05 to 5 IU/kg or saline intraperitoneally after an overnight fast. Thirty minutes after administering insulin, the animals were sacrificed by decapitation and trunk blood was collected into polypropylene tubes containing 400 μl of 10% EDTA at 4° C. The plasma was separated by centrifugation and stored at -80° C. until being used for ACTH determinations. Plasma concentrations of ACTH were determined by radioimmunoassay using antiserum [IgG Corporation, Nashville, Tenn.] and ^125 I-labelled ACTH [ICN Corporation, Costa Mesa, Calif.] as described by Nicholson et al, Clin. Chem., 30:259-265 (1984).

[1] = system: insulin-induced ACTH secretion; experiment: Effect of peptide on insulin-induced ACTH secretion (insulin challenge); format: in vivo, Sprague-Dawley rats; details: insulin 0.5 IU/kg intraperitoneally, 30 minutes, rats pretreated with saline by oral gavage or s.c. injection; from 16.8±0.8 pg/ml
Protocol: As mentioned above, the administration of insulin can be used as a provocative challenge test to determine how an organism responds to stress and how the response can be manipulated. It was shown in FIG. 1 that, in rats, administration of insulin causes an increase in plasma concentrations of ACTH.
Adult male Sprague-Dawley rats were used in these experiments. After an overnight fast, the peptide or saline was administered by oral gavage or by subcutaneous injection to the experimental subjects. Doses of the peptide ranged from 0.1 to 10 mg/kg by the oral route and 0.03 to 3.0 mg/kg by the subcutaneous route. […] all animals were treated with insulin (0.5 IU/kg) and were sacrificed by decapitation 30 minutes later. As above, trunk blood was collected in polypropylene tubes containing 400 μl of 10% EDTA at 4° C. Plasma was separated by centrifugation and stored at -80° C. until being used for ACTH determinations, ACTH concentrations were determined by RIA as described by Nicholson et al, cited above, using antiserum [IgG Corporation] and ^125 I-labelled ACTH [ICN Corporation].

insulin: insulin [Humulin, Eli Lilly Co.], used as provocative challenge to raise plasma ACTH in rats
plasma ACTH levels (ACTH secretion; insulin 0.05 IU/kg intraperitoneally): not elevated | plasma ACTH concentrations (ACTH secretion; insulin 0.1 IU/kg intraperitoneally): significantly greater than in vehicle treated controls | ACTH responses (ACTH secretion; insulin doses higher than 0.1 IU/kg up to 5 IU/kg intraperitoneally): commensuratively greater ACTH responses | plasma ACTH concentrations [1]: approximately 200 pg/ml

Reference: US5639729A, “Tripeptides useful in immune and CNS therapy” (Immunobiology Research Institute, Inc., priority 1993, dated 1997)
